Dmax, DC50 and IC50 data for three compounds are collected here from patent US12528814B2, “Bifunctional degraders of interleukin-1 receptor-associated kinases and therapeutic use thereof” (NURIX THERAPEUTICS, INC., priority 2020, dated 2026).

Read-outs that look alike come from different tables or passages of the source.

For experiment [1], the target named is T1, IRAK4 (Homo sapiens (Human), UniProt Q9NWZ3). Briefly: IRAK4 Degradation HiBiT Assay. To be noted: HiBiT-tagged Jurkat cells, 4 hrs; for Dmax: Jurkat; for DC50: read-out: Cellular IRAK4 HiBiT: DC50.
Target sequence in this assay (Q9NWZ3 whole entry): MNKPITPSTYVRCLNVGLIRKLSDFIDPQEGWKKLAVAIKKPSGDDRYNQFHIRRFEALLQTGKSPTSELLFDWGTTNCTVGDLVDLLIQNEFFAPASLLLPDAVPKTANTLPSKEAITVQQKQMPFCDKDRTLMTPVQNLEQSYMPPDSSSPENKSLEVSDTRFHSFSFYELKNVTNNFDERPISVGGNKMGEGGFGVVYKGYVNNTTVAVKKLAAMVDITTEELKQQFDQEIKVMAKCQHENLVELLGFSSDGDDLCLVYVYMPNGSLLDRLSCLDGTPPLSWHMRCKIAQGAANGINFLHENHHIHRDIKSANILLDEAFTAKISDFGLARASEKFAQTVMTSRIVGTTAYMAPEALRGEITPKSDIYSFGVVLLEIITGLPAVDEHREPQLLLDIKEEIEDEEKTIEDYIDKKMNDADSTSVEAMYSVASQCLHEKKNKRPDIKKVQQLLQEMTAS
The target of experiment [2] is T1, IRAK4. The experiment is described as follows: IRAK4 Biochemical HTRF Kinase Assay. The settings on record: read-out: IRAK4 HTRF biochemical: IC50. The gist of the method:
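IC50 values derive from non-linear regression of sixteen concentrations in duplicate. Kinase reaction ran 90 min at ambient temperature after adding 5 μM STK-S1 substrate, 10 mM ATP and 10 mM MgCl2 (reaction-solution levels, pre-dilution to 10 μl); phospho-peptide detected by HTRF after 60 min.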
Target sequence in this assay (Q9NWZ3 whole entry, species assumed): as the sequence (Q9NWZ3 whole entry) above
A general note: Time-resolved FRET reads energy transfer from a long-lived donor to a nearby acceptor.

Where [3] appears, read: read-out: Cellular IRAK4 HiBiT: Dmax, Table 5, multiple runs.
Setting [4] is: read-out: Cellular IRAK4 HiBiT: Dmax, Table 4.

Broadly, the Dmax is the greatest extent of degradation seen. Broadly, the DC50 is the concentration at which degradation of the target reaches its halfway point. What is called IC50 is the concentration that inhibits the measured activity by half. With `CNc1cc(-c2ccc3cc(C#N)cnn23)ncc1-c1nnc([C@H]2C[C@H](NC(=O)CN3CCN(c4ccc5c(c4)C(=O)N(C4CCC(=O)NC4=O)C5=O)CC3)C2)s1` (stereo partly drawn) [Example 190, N-((1r,3r)-3-(5-(6-(3-cyanopyrrolo[1,2-b]pyridazin-7-yl)-4-(methylamino)pyridin-3-yl)-1,3,4-thiadiazol-2-yl)cyclobutyl)-2-(4-(2-(2,6-dioxopiperidin-3-yl)-1,3-dioxoisoindolin-5-yl)piperazin-1-yl)acetamide], on IRAK4 [1] (setting [3]), the Dmax was 105%. Further, the DC50 at IRAK4 [1] (Table 5, multiple runs) amounted to 7.75 nM. Further, on IRAK4 [2] (Table 5, multiple runs), the IC50 came out at 1 nM.

On to `CC(C)Nc1cc(-c2ccc3cc(C#N)cnn23)ncc1-c1nnc(N2CCC(NCC3CCN(c4ccc5c(c4)C(=O)N(C4CCC(=O)NC4=O)C5=O)CC3)CC2)s1` (stereo not drawn) [Example 22, 7-[5-(5-{4-[({1-[2-(2,6-dioxopiperidin-3-yl)-1,3-dioxo-2,3-dihydro-1H-isoindol-5-yl]piperidin-4-yl}methyl)amino]piperidin-1-yl}-1,3,4-thiadiazol-2-yl)-4-[(propan-2-yl)amino]pyridin-2-yl]pyrrolo[1,2-b]pyridazine-3-carbonitrile], for which the Dmax on IRAK4 [1] (setting [4]) came out at 96%; on IRAK4 [1] (setting [3]), 99%. The DC50 came out at 232 nM at IRAK4 [1] (Table 4) and 231 nM on IRAK4 [1] (Table 5, multiple runs). Moreover, the IC50 came out at 0.8 nM on IRAK4 [2] (Table 4) and 0.8 nM at IRAK4 [2] (Table 5, multiple runs).

Take `CNc1cc(-c2ccc3cc(C#N)cnn23)ncc1-c1nnc([C@H]2CC[C@H](NC(=O)CCOCCC(=O)N[C@H](C(=O)N3C[C@H](O)C[C@H]3C(=O)N[C@@H](C)c3ccc(-c4scnc4C)cc3)C(C)(C)C)CC2)s1` [Example 61, (2S,4R)-1-((S)-2-(3-(3-(((1r,4S)-4-(5-(6-(3-cyanopyrrolo[1,2-b]pyridazin-7-yl)-4-(methylamino)pyridin-3-yl)-1,3,4-thiadiazol-2-yl)cyclohexyl)amino)-3-oxopropoxy)propanamido)-3,3-dimethylbutanoyl)-4-hydroxy-N—((S)-1-(4-(4-methylthiazol-5-yl)phenyl)ethyl)pyrrolidine-2-carboxamide]: the Dmax at IRAK4 [1] (setting [4]) came to 117%; at IRAK4 [1] (setting [3]), 121%. Also, the DC50 at IRAK4 [1] (Table 4) worked out at 591 nM; at IRAK4 [1] (Table 5, multiple runs) it was 399 nM. For the same compound, the IC50 at IRAK4 [2] (Table 4) is 3.98 nM; at IRAK4 [2] (Table 5, multiple runs), 4 nM.
